Experimental data: patent US20140230081A1, “POLYNUCLEOTIDE, POLYPEPTIDE, ANIMAL MODEL AND METHOD FOR THE DEVELOPMENT OF COMPLEMENT SYSTEM MODULATORS” (BAYER INTELLECTUAL PROPERTY GMBH, priority 2011, published 2014)
Where “and” joins values, the source holds several entries; their conditions need not be identical. Equal entries are not always repeated. Where two headings read alike, the source gives them in different places.

Experiments:
hamster C5aR1 [1] = assay: C5aR1 signalling via Calcium release (luminescence) in CHOmtCly_hamster-C5aR1/Galpha16 cells; type: cell-based; conditions: peptide at 7 μM; three CHOmtCly_hamster-C5aR1/Galpha16 cell lines, respectively; measured for 60 seconds; listed as Bachem peptide 83462
Method: CHO K1 cell lines expressing mitochondrial Clytin (CHOmtCly) were co-transfected with the expression vector pcDNA3 harbouring the cDNA of hamster C5aR1 und pcDNA3-Galpha16 to allow the measurement of C5aR1 signalling via Calcium release (generated cells are named CHOmtCly_hamster-C5aR1/Galpha16). Control cells (CHOmtCly_pcDNA3) were generated by transfection of CHOmtCly cells with a corresponding amount of empty pcDNA3 vector only. In brief, 10^6 cells were transfected with 2 μg DNA by use of the Nucleofector (Amaxxa) program U-27. Transfected cells were seeded in 384-well MTP with a density of 250 cells per well. After 24 h incubation at 37° C. selection media containing a final concentration of 1 mg/ml G418 was added. After one week of selection plates were duplicated and tested for C5aR1 signalling. Cells were loaded with Coelenterazine for 3 h, than buffer or the C-terminal peptide of human C5a (Bachem H3462) was added at a final concentration of 7 μM. Luminescence (RLU) was measured for 60 seconds.
For activity measurement, three CHOmtCly_hamster-C5aR1/Galpha16 cell lines and three CHOmtCly cDNA3 cell lines were analyzed, respectively.
Target sequence in this assay (as listed by the source): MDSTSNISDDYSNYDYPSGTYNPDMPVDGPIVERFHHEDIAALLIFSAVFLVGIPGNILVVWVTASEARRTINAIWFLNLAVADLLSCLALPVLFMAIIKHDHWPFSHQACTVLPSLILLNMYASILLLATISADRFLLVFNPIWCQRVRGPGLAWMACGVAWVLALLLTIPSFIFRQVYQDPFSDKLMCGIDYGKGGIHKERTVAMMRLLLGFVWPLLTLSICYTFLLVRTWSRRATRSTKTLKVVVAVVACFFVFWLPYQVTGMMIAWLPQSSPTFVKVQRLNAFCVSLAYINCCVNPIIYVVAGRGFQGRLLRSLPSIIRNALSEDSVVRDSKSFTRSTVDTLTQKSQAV
Target sequence in this assay (P30679 whole entry partner): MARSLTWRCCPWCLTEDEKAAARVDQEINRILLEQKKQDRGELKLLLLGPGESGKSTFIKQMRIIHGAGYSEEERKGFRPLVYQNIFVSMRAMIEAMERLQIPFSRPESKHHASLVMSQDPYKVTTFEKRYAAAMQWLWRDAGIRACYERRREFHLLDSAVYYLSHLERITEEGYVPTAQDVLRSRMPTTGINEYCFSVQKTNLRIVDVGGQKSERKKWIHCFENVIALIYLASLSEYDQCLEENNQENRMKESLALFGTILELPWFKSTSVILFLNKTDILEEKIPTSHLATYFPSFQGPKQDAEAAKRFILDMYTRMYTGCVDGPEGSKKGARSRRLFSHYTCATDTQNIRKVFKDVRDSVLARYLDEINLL

[2] = test system: classical complement pathway; conditions: cited from earlier work
[3] = target: hamster C5aR1 polypeptide (hamster); assay: cell-based or functional assay
Chain of hamster C5aR1 polypeptide (hamster) (chain, as listed by the source limits assumed): as the sequence (as listed by the source) above

[4] = in vivo; cited from earlier work
[5] = test system: complement-mediated tissue injury; conditions: models of ischemia-reperfusion and animal models of human acute and chronic inflammatory diseases; cited from earlier work
complement activation [6] = conditions: cited from earlier work
[7] = test system: porcine-to-human xenograft; conditions: perfused with human blood; cited from earlier work
complement activation [8] = conditions: cited from earlier work; remark: listed apart in the source
IL6 expression = assay: CLP model in hamster, IL6 expression in tissues (TaqMan RT-PCR); type: in vivo, Syrian Hamster; conditions: CLP+0.5 mg/kg, CLP+2.5 mg/kg and CLP+Alzet vs. CLP+vehicle, dose dependently
Method: (§1) Hamster tissues were pulverized by grinding with liquid nitrogen. Total RNA was extracted, DNase I digestion was performed to remove residual genomic DNA and the RNA were reverse transcribed using random hexamer primers. Quantitative TaqMan RT-PCR analysis was performed using the Applied Biosystems PRISM 7900 sequence detection system. The thermal protocol was set to 2 min at 50° C., followed by 10 min at 95° C. and by 40 cycles of 15 s at 95° C. and 1 min at 60° C. Results were normalized to L32 controls, and relative expression was calculated according to the following formula: relative expression=2̂(15−(CT(probe)−CT(L32))). The parameter CT is defined as the cycle number at which the amplification plot passes a fixed threshold above baseline. […]
(§2) Total RNA was isolated from hamster tissues with the Trizol-Reagent protocol according to the manufacturer's specifications (Invitrogen; USA). […] For relative quantitation of the mRNA distribution of IL10, IL6 and IL1b, total RNA from each sample was first reverse transcribed. […] For relative quantitation of the distribution of IL10, IL6 or IL1b mRNA the Applied Biosystems PRISM 7900 sequence detection system was used according to the manufacturer's specifications and protocols. PCR reactions were set up to quantitate IL 10, IL6 or IL1b and the housekeeping gene L32. […]

IL10 expression = assay: CLP model in hamster, IL10 expression in tissues (TaqMan RT-PCR); type: in vivo, Syrian Hamster; conditions: CLP+0.5 mg/kg, CLP+2.5 mg/kg and CLP+Alzet vs. CLP+vehicle, dose dependently
Method: Hamster tissues were pulverized by grinding with liquid nitrogen. Total RNA was extracted, DNase I digestion was performed to remove residual genomic DNA and the RNA were reverse transcribed using random hexamer primers. Quantitative TaqMan RT-PCR analysis was performed using the Applied Biosystems PRISM 7900 sequence detection system. The thermal protocol was set to 2 min at 50° C., followed by 10 min at 95° C. and by 40 cycles of 15 s at 95° C. and 1 min at 60° C. Results were normalized to L32 controls, and relative expression was calculated according to the following formula: relative expression=2̂(15−(CT(probe)−CT(L32))). The parameter CT is defined as the cycle number at which the amplification plot passes a fixed threshold above baseline.
(§3) Midline incision was made in the Linea Alba of the peritoneal cavity and the cecum was exposed. 50% of the cecum was tied off by placing a tight ligature around the cecum. For the CLP model two puncture wounds were made with an 18-gauge needle into the cecum and small amounts of cecal contents were expressed through the wounds, situs was flushed with 0.5 mL sterile saline. Finally, the cecum was replaced into the peritoneal cavity and the laparotomy site was closed. The sham group underwent abdominal surgery; the cecum was exposed and replaced without ligation or puncture of the cecum. Situs was flushed with 0.5 mL sterile saline and the laparotomy site was closed.
C5aR Antagonist was dissolved in DMSO and diluted with sterile saline solution. The final solution contained 5% DMSO. […]
as §2

white blood cell counts = assay: CLP model in hamster, hemogram (white blood cell counts of EDTA whole blood); type: in vivo, Syrian Hamster; conditions: CLP+0.5 mg/kg, CLP+2.5 mg/kg and CLP+Alzet compared to CLP+vehicle; FIG. 24
Method: Blood samples were obtained under light Isoflurane anesthesia from the cavernous sinus with a capillary at different time points/final exsanguination by cannulation of the carotid artery after 24 hr to allow measurements of differential blood counts. Blood samples for basal blood cell counts were collected from the cavernous sinus one week before study begin. Blood was collected into EDTA tubes and blood cell counts were performed on an automated cell counter.
as §3
C5aR Antagonist was dissolved in DMSO and diluted with sterile saline solution. The final solution contained 5% DMSO. […] The study medication was given s.c. 30 min before and 2 h after CLP surgery. […]

hamster C5aR1 [9] = assay: Receptor activation of hamster C5aR1, reduction by antagonist; type: cell-based; conditions: activated by human C5a ligand
C5aR [10] = conditions: gerbil neutrophils; cited from earlier work
C5aR [11] = conditions: cynomolgus monkey neutrophils; cited from earlier work
IL1b expression = assay: CLP model in hamster, IL1b expression in tissues (TaqMan RT-PCR); type: in vivo, Syrian Hamster; conditions: CLP+0.5 mg/kg, CLP+2.5 mg/kg and CLP+Alzet vs. CLP+vehicle; dose dependently; FIG. 11
Method: as §1, §2

H3462: C-terminal peptide of human C5a (Bachem H3462) (ISHKDMQLGR)
Luminescence (RLU) on stimulation (hamster C5aR1 [1]): 247943 RLU and 243143 RLU and 203151 RLU

CEGPFGPRHDLTFCW [2J]
IC50 [2]: 2 to 6 µM

C-terminal peptide of human C5a (Bachem H3462) (from UniProt P01031 742-751)
Luminescence (RLU), calcium release via mitochondrial Clytin, peptide at 7 µM, measured for 60 seconds; cell line 1 of 3 [3]: 248000 RLU | Luminescence (RLU), calcium release via mitochondrial Clytin, peptide at 7 µM, measured for 60 seconds; cell line 2 of 3 [3]: 243000 RLU | Luminescence (RLU), calcium release via mitochondrial Clytin, peptide at 7 µM, measured for 60 seconds; cell line 3 of 3 [3]: 203000 RLU

sCR1: soluble version of recombinant human CR1 lacking the transmembrane and cytoplasmic domains
half-life in circulation [4]: short | complement-mediated tissue injury [5]: reduce

CC[C@H](C)[C@H](N)C(=O)N[C@H]1CSSC[C@@H](C(=O)N[C@H](C(N)=O)[C@@H](C)O)NC(=O)[C@H](CCCN=C(N)N)NC(=O)[C@H](Cc2cnc[nH]2)NC(=O)[C@H](Cc2cnc[nH]2)NC(=O)CNC(=O)[C@H](Cc2c[nH]c3ccccc23)NC(=O)[C@H](CC(=O)O)NC(=O)[C@H](CCC(N)=O)NC(=O)[C@H](C(C)C)NC(=O)[C@H](C(C)C)NC1=O [Compstatin]
side effects (complement activation [6]; in vivo): without significant side effects | heparine and protamine-induced complement activation (complement activation [6]; primates): inhibit | lifetime of a porcine-to-human xenograft [7]: prolongs | complement activation in human serum (complement activation [8]): inhibit

COc1ccc2c(c1)C(C(=O)N(Cc1ccc(N(C)C)cc1)c1ccc(C(C)C)cc1)CCC2.Cl (stereo not drawn) [W-54011]
expression of IL6 in LV (left ventricle) tissue (IL6 expression; FIG. 9): decreased | expression of IL6 in lung tissue (IL6 expression; FIG. 10): decreased | expression of IL10 in kidney tissue (IL10 expression; FIG. 6): decreased | expression of IL10 in LV (left ventricle) tissue (IL10 expression; FIG. 7): decreased | expression of IL10 in lung tissue (IL10 expression; FIG. 8): decreased | WBC (white blood cell counts) (white blood cell counts): higher | receptor activation of hamster C5aR1 (hamster C5aR1 [9]): can be reduced | inhibition of C5a-mediated responses (C5aR [10]): inhibits | inhibition of C5a-mediated responses (C5aR [11]): inhibits | expression of IL1b in LV (left ventricle) tissue (IL1b expression): decreased
